The conditions of data set [1]: i.v., 10 μmol/kg b.w.; humans (Toft et al.) and rats (Hustvedt et al.); cited from earlier work.
For data set [2] the following is noted: rat, in vivo, ip.
Description: Twenty-four hours later, the rats were killed and the brains were dissected out and stored at −80° C. until Mn analysis. […] Before analysis, each brain was resolved in 5 ml concentrated nitric acid plus 3 ml distilled water in a microwave oven, and thereafter diluted with distilled water to a final volume of 50 ml. The Mn and Zn content of each sample was analyzed by ICP-MS. Results are expressed as μg/g brain wet weight±S.E.M and percentage increase in Mn brain content. […] A p-value lower than 0.05 was considered as a statistically significant difference.
The conditions of data set [3]: rats, i.v.
Description: After injection, the rats were immediately placed in metabolic cages for urine collection over a period of 0-24 hours. To obtain basal content of manganese (Mn) in urine, two additional (control) rats were placed in metabolic cages for urine collection over the same period of time. The urine samples were then stored at −80° C. until Mn analysis. Before analysis, the samples were thawed and extensively shaken to obtain homogenous samples. A five ml aliquot was taken from each sample and 5 ml concentrated nitric acid was added. The samples were then resolved in a microwave oven and thereafter diluted with distilled water to a final volume of 50 ml. The Mn content of each sample was analyzed by ICP-MS (Inductively Coupled Plasma Mass Spectrometry). […] This sample was treated in an identical manner to that of the urine samples and analyzed for its Mn content. Results are presented as total 0-24 h urine Mn content (expressed as μmol/kg±S.E.M.) and as percentage (±S.E.M.) of the injected dose. The statistical difference between animals receiving MnDPDP alone and animals receiving MnDPDP and DPDP, with respect to excretion of manganese into the urine, was tested by an unpaired Student's t-test. A p-value lower than 0.05 was considered as a statistically significant difference.
Data set [4] in a line: Literature pharmacokinetics of i.v. MnDPDP (Toft et al., 1997): manganese release, urine Mn and Zn, metabolism. The class given is in vivo. The note with it: humans, 10 μmol/kg b.w., rough recalculation of data of Toft et al.
The conditions of data set [5]: rats, i.v.; for effect on 0-24 h Zn excretion: 10 μmol/kg MnDPDP alone, with 20 μmol/kg b.w. DPDP, or 10 μmol/kg b.w. DPDP, n=2.
Description: 10 male Wistar rats (approximately 250 g) were injected intravenously, via one of the tail veins, with either 0, 0.125, 0.250, 0.500 or 0.750 ml of a 10 mM DPDP formulation, corresponding to 0, 5, 10, 20 and 30 μmol/kg b.w. […] After injection, the rats were immediately placed in metabolic cages for urine collection over a period of 0-24 hours. The urine samples were then stored at −80° C. until Zn and Mn analyses. Before analyses, the samples were thawed and extensively shaken to obtain homogenous samples. A five ml aliquot was taken from each sample and 5 ml concentrated nitric acid was added. The samples were then resolved in a microwave oven and thereafter diluted with distilled water to a final volume of 50 ml. The zinc (Zn) and manganese (Mn) content of each sample were analyzed by ICP-MS. Results are presented as total 0-24 h urine Zn and Mn content (expressed as μmol/kg b.w.±S.E.M.).
For data set [6], the system named is white blood cells. The conditions noted are these: mice, 10 mg/kg b.w. MnDPDP (Alexandre et al., 2006); cited from earlier work.
Data set [7] concerns white blood cells. Briefly: Paclitaxel-induced myelosuppression (leucopenia) in mice, blood cell counts (Example 5). Type of data set: in vivo, BALB/c female mice. The note with it: i.p., paclitaxel 20 mg/kg b.w. on days 0, 2, 4, blood day 10. The protocol: To test the therapeutic efficacy, initial experiments were conducted in BALB/c female mice (15-20 g), as described by Alexandre et al., JNCI 2006; 98:236-244).
Five mice were treated in each group. Paclitaxel was administered on days 0, 2, and 4. […] Ten days after the first injection the mice were anesthetized and blood samples were withdrawn by heart puncture into EDTA-tubes and blood cell counting (including white blood cell count (WBC); absolute neutrophil (ANC), monocyte and lymphocyte count) was conducted on a CELL-DYN Sapphire analyzer, after the blood samples had been diluted 1:1. Some samples had to be discarded because of clotting but all groups included at least blood from 3 animals.

Turning to `Cc1ncc(COP(=O)(O)O)c(CN(CCN(CC(=O)O)Cc2c(COP(=O)(O)O)cnc(C)c2O)CC(=O)O)c1O.[Mn]` [MnDPDP, Manganese N,N′-bis-(pyridoxal-5-phosphate)-ethylenediamine-N,N′-diacetic acid], the “manganese originating from the chelator that comes out in the urine” value in data set [1] is ≤ 20%. Besides, in data set [2], the Zn brain content entry is listed as “identical” and the “percentage increase in brain Mn” value is 23.5%. The “amount of manganese released from the complex” value in data set [3] (as exemplified by Example 1) was 85%. The “Mn excretion in urine during 0-24 h as percentage of the injected dose” value in data set [3] (0.25 ml 10 mM MnDPDP ± 0.5 ml 10 mM DPDP, mean±S.E.M., n=7) came to 15.7±1.1%. The renal zinc excretion result in data set [4] is given as “approximately 3 μmol/kg b.w”. Moreover, the “effect on 0-24 h Zn excretion” value in data set [5] was “relatively small effect”. In addition, the “amount of zinc in the urine up to 24 hours” value in data set [5] (10 μmol/kg b.w. MnDPDP) was “about 2 μmol/kg b.w”. In addition, the “protection against paclitaxel-induced leucopenia” value in data set [6] was “effectively protect”.
Consider `CC(=O)O[C@H]1C(=O)[C@@]2(C)[C@H]([C@H](OC(=O)c3ccccc3)[C@]3(O)C[C@H](OC(=O)[C@H](O)[C@@H](NC(=O)c4ccccc4)c4ccccc4)C(C)=C1C3(C)C)[C@]1(OC(C)=O)CO[C@@H]1C[C@@H]2O` [Paclitaxel, paclitaxel], for which, in data set [7], the “reduction of the various white blood cells” value was ~50%.
Turning to `Cc1ncc(COP(=O)(O)O)c(CN(CCN(CC(=O)O)Cc2c(COP(=O)(O)O)cnc(C)c2O)CC(=O)O)c1O` [DPDP, N,N′-bis-(pyridoxal-5-phosphate)-ethylenediamine-N,N′-diacetic acid], the “effect of increasing doses of DPDP on 0-24 h Mn excretion” value in data set [5] (0-30 μmol/kg b.w. DPDP) is on record as “just minor effects”. The “effect on 0-24 h Zn excretion” value in data set [5] is “doubles the zinc excretion”. Also, the “0-24 h Zn excretion (saturation level)” value in data set [5] (at a dose of 10 μmol/kg b.w. DPDP) is “around 4 μmol/kg”.

(Values after patent US10688087B2, “Pharmaceutical compositions and therapeutic methods employing a combination of a manganese complex compound and a non-manganese complex form of the compound” (PLEDPHARMA AB, priority 2009, dated 2020).)
